# From PMC10689823, “Discovery of a Drug-like, Natural Product-Inspired DCAF11 Ligand Chemotype” (Nature Communications, 2023)
# Experiments:
# Type in all cases: cell-based
# [1] = biological target: T1, BRD3 (Homo sapiens, UniProt Q15059); assay: BRD3 levels by Western blot in Jurkat cells; details: 3 µM, 6 h treatment
# T1 construct: endogenous in cells; host or cells: Jurkat
# Procedure: (§1) Cells were washed with PBS and lysed in lysis buffer (50 mM Tris-HCl, pH 7.4, 150 mM NaCl, 1% Triton X-100, 1% sodium deoxycholate, 0.1% SDS) with complete protease inhibitor cocktail (Roche, 11836170001) for 30 min on ice. For Ramos cells, cell pellets were lysed in lysis buffer (50 mM Tris-HCl, pH 8, 150 mM NaCl, 1% NP-40, 0.5% sodium deoxycholate) with complete protease inhibitor cocktail. After centrifugation at 16,000 x g, the supernatant was transferred into a new tube and the protein concentration was determined by DC protein assay (BIO-RAD, 5000116). Proteins were separated by SDS-PAGE and transferred to a PVDF membrane (Thermo scientific, 0.45 μm, 88518). For PDEδ, BRD2, GAPDH, BRD4, Vinculin and BTK, the membranes were blocked with Intercept® Blocking Buffer (LI-COR Biosciences, 927-70001) at room temperature for 1 h. The primary antibodies for these proteins were diluted with Intercept® Blocking Buffer (1:500 for PDEδ, 1:3000 for Vinculin, and 1:1000 for other proteins) and incubated with the membranes overnight at 4 °C. Membranes were washed with PBS + 0.1% Tween 20 (PBS-T) five times and incubated with secondary antibodies conjugated to IRDye® Infrared Fluorescent Dyes (1:5000, LI-COR Biosciences) at room temperature for 1 h with protection from light. After washing the membrane, signals were visualized using the ChemiDoc MP Imaging System (BIO-RAD Laboratories). For detection of LC3B, BRD3, BLK, DCAF11, DDB1 RBX1, FIP200, V5- and FLAG-Tag the membranes were blocked with 5% milk in PBS-T at room temperature for 1 h. The primary antibodies for these proteins were diluted in 5% milk in PBS-T buffer (1:200 for BRD3, 1:1000 for other proteins) and incubated with the membranes overnight at 4 °C. Membranes were washed with PBS-T five times and incubated with HRP secondary antibodies (1:1500) at room temperature for 1 h. After washing the membrane, protein detection was performed using Western blotting detection reagent (Thermo Scientific, 34095) and the ChemiDoc MP Imaging System (BIO-RAD). Relative band intensities were quantified using Image Lab (BIO-RAD).
# [2] = Cell viability assay (CellTiter-Glo) in Jurkat cells; details: human, Jurkat cells
# In short: (§2)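 Jurkat and Hep G2 cells were exposed to compounds for 72 h, with an untreated plate counted at time zero. Viability was read as CellTiter-Glo luminescence after 10 min reagent incubation at room temperature.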
# [3] = tested on: Jurkat cells; assay: as above; details: Homo sapiens; Jurkat cells; 72 h
# In short: as §2
# [4] = biological target: T2, BRD4(S)-BFP (Homo sapiens, UniProt O60885); assay: Flow cytometry-based BRD4 reporter assay (DCAF11 knockout/rescue); details: 6 h, 10 at 5 µM, 9 at 1 µM, dBET6 at 0.5 µM, DMSO = 1
# T2 construct: BRD4 short isoform (amino acids 1-719; Twist Bioscience); V5; P2A-mCherry (mCherry split off by P2A self-cleavage) (C, cleaved yes); expressed in transfected cells; host or cells: KBM7 iCas9 cells, lentiviral SFFV-BRD4(S)-mTagBFP-P2A-mCherry
# Procedure: Stable BRD4(S)-BFP reporter KBM7 iCas9 cell line was generated as previously described. […] Cells were subsequently washed, resuspended in FACS buffer and analyzed on LSRFortessa (BD Biosciences). Flow cytometry data was analyzed in FlowJo (v10.8.1). BFP and mCherry mean fluorescence intensity (MFI) values for were normalized by background subtraction of the respective values from reporter negative KBM7 wild type cells.
# [5] = biological target: T3, BRD2 (Homo sapiens, UniProt P25440); assay: BRD2 levels by Western blot in KBM7 cells (WT, DCAF11 knockout, DDB1 knockout); parameters: endogenous in cells; host or cells: KBM7 (WT, DCAF11 KO, DDB1 KO)
# [6] = biological target: T4, BRD4 (Homo sapiens, UniProt O60885); assay: BRD4 levels by Western blot in Jurkat cells; details: 3 µM, 6 h treatment
# T4 construct: endogenous in cells; host or cells: Jurkat
# Procedure: as §1
# [7] = biological target: T3, BRD2; assay: BRD2 levels by Western blot in Jurkat cells; parameters: endogenous in cells; host or cells: Jurkat; Hep G2; MDA-MB-231; KBM7 (WT, DCAF11 KO, DDB1 KO)
# Procedure: as §1
# T3 sequence (P25440 whole entry): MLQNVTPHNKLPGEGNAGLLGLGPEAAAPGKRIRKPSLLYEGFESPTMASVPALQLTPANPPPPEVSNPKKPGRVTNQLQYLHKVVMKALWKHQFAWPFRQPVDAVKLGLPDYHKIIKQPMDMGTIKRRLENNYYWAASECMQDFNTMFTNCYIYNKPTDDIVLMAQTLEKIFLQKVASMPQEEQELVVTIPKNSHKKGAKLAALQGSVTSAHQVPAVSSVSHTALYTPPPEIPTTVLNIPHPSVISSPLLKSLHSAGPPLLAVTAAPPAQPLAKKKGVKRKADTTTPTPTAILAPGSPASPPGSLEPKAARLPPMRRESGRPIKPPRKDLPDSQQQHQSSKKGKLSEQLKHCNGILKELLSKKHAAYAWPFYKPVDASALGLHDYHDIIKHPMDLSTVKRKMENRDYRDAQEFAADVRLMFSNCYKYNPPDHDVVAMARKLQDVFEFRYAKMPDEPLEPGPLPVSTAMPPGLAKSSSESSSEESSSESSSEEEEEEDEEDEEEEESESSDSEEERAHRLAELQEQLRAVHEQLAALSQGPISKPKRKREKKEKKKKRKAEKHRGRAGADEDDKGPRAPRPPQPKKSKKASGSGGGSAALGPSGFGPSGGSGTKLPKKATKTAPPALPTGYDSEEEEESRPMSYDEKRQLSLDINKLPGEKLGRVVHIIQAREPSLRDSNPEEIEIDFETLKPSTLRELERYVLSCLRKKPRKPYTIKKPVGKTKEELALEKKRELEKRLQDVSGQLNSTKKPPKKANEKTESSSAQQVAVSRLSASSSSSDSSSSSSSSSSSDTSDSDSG
# T1 sequence (Q15059 whole entry): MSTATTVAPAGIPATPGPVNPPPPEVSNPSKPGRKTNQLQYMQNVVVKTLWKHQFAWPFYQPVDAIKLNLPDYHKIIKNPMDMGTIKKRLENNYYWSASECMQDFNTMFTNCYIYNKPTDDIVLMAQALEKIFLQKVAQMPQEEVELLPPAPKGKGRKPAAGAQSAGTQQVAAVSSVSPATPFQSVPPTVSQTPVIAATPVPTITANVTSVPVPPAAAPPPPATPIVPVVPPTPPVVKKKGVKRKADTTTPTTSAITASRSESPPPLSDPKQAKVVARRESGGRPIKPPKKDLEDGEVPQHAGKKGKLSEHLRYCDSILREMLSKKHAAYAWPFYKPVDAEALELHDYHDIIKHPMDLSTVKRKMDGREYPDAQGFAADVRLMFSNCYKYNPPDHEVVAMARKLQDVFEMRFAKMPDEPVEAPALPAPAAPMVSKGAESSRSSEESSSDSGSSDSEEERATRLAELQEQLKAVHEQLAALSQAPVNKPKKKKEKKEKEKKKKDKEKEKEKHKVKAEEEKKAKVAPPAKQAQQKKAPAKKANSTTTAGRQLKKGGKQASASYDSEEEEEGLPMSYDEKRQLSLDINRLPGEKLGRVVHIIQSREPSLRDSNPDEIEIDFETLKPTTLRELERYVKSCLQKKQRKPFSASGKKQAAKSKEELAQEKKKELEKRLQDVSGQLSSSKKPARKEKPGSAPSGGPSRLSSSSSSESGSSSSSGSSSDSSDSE
smiles,measurement,setting,value
Cc1sc2c(c1C)C(c1ccc(Cl)cc1)=NC(CC(=O)NCCOCCOCCOCCOc1c(Br)cc(C=C3C(=O)Nc4ccc(Br)cc43)cc1Br)c1nnc(C)n1-2 (stereo not shown) [Compound 10],degradation of BRD3,[1],potent degradation activity
same,"viability at 72 h, 10 nmol/L","[2]; concentration 10 nmol/L, individual replicates, Supplementary Fig. 7g, read-out: Cell viability (%) relative to DMSO",89.7%
same,"viability at 72 h, 30 nmol/L","[2]; concentration 30 nmol/L, individual replicates, Supplementary Fig. 7g, read-out: Cell viability (%) relative to DMSO",90.1%
same,"viability at 72 h, 0.1 µM","[2]; 72 h, 100 nM, Fig. 4k, read-out: Relative cell viability (%)",70.8%
same,"viability at 72 h, 0.3 µM","[2]; 72 h, 300 nM, Fig. 4k, read-out: Relative cell viability (%)",33.9%
same,"viability at 72 h, 1 µM","[2]; 72 h, 1000 nM, Fig. 4k, read-out: Relative cell viability (%)",1.17%
same,GI50,[3],190 ± 30 nM
same,norm BRD4 abundance,"[4]; KBM7 iCas9 BRD4(S)-BFP reporter cells, WT",0.5147
same,norm BRD4 abundance,"[4]; reporter cells, DCAF11 KO + WT cDNA",0.5732
same,norm BRD4 abundance,"[4]; reporter cells, DCAF11 KO",0.8082
same,BRD2 degradation after knockout of DDB1 in KBM7 cells,"[5]; 0.5 µg/mL Dox for 3 days, then compound 4 h",did not lead to BRD2 degradation anymore
same,BRD2 degradation in DCAF11 knockout (KO1 and KO2) KBM7 cells,"[5]; 9 at 3 μM, 10 at 10 μM, 11 at 10 μM, 6 h",abolished
same,BRD2 degradation in KBM7 cells,[5]; 4 h,displayed BRD2-degrading activity
same,degradation of BRD4,[6],potent degradation activity
same,degradation of BRD2,"[7]; 3 µM, 6 h treatment",potent degradation activity
same,remaining activity at 3 µM,"[7]; Jurkat, 6 h, 3 μM, 6 h, Fig. 4j, read-out: BRD2/Vinculin intensity (relative to DMSO control group)",30.7%
